Common to all, as to assay type: ADME
Series [1] in a line: Kinetic constant log k was determined.
Series [2] is described as follows: Rate of decomposition in aqueous solution (pH 8.0, 30 degree Celsius) at 107 min. The following applies: buffer, pH 8, 107 min.
A short description of series [3]: Half life was determined. As to conditions: rat.
Series [4] can be described thus: Rate of decomposition in aqueous solution(pH 8.0, 30 degree Celsius)at 350 min. As to conditions: buffer, pH 8, 350 min.
A short description of series [5]: Rate of decomposition in aqueous solution (pH 8.0, 30 degree Celsius) at 150 min. As to conditions: buffer, pH 8, 2.5 h.
A short description of series [6]: Rate of decomposition in aqueous solution (pH 8.0, 30 degree Celsius) at 87 min. As to conditions: buffer, pH 8, 1.45 h.
A short description of series [7]: Rate of decomposition in aqueous solution (pH 8.0, 30 degree Celsius) at 84 min. As to conditions: buffer, pH 8, 1.4 h.
The nature of series [8]: Rate of decomposition in aqueous solution (pH 8.0, 30 degree Celsius) at 2.6 min. As to conditions: buffer, pH 8, 156 s.
The nature of series [9]: Rate of decomposition in aqueous solution (pH 8.0, 30 degree Centigrade) at 5.3 min. The following applies: buffer, pH 8, 318 s.
The nature of series [10]: Rate of decomposition in aqueous solution (pH 8.0, 30 degree Celsius) at 46 min. The following applies: buffer, pH 8, 46 min.
Series [11] is described as follows: Rate of decomposition in aqueous solution (pH 8.0, 30 degree Celsius) at 35 min. The following applies: buffer, pH 8, 35 min.
A short description of series [12]: Rate of decomposition in aqueous solution (pH 8.0, 30 degree Celsius) at 1500 min. The following applies: buffer, pH 8, 25 h.
The nature of series [13]: Rate of decomposition in aqueous solution (pH 8.0, 30 degree Celsius) at 690 min. The following applies: buffer, pH 8, 11.5 h.
Series [14] in a line: Rate of decomposition in aqueous solution (pH 8.0, 30 degree Celsius) at 350 min. The following applies: buffer, pH 8, 350 min.
The nature of series [15]: Rate of decomposition in aqueous solution (pH 8.0, 30 degree Celsius) at 190 min. As to conditions: buffer, pH 8, 190 min.
A short description of series [16]: Rate of decomposition in aqueous solution (pH 8.0, 30 degree Celsius) at 86 min. As to conditions: buffer, pH 8, 86 min.
Series [17] can be described thus: Rate of decomposition in aqueous solution (pH 8.0, 30 degree Celsius) at 580 min. The following applies: buffer, pH 8, 580 min.
Series [18] is described as follows: Rate of decomposition in aqueous solution (pH 8.0, 30 degree Celsius) at 1800 min. The following applies: buffer, pH 8, 30 h.
A short description of series [19]: Rate of decomposition in aqueous solution (pH 8.0, 30 degree Celsius) at 2900 min. As to conditions: buffer, pH 8, 2900 min.
Series [20] in a line: Rate of decomposition in aqueous solution (pH 8.0, 30 degree Celsius) at 270 min. The following applies: buffer, pH 8, 4.5 h.

Molecules are shown by their SMILES.

What is called half-life is how long it takes for the measured level to halve. As for `CC/C(=C\C(CNC(=O)c1cccnc1)=N\O)C(C)[N+](=O)[O-]` (stereo unspecified), the Log k in [1] is -2.187. Also, the k in series [2] was 0.0065 min⁻¹. In series [3], the half-life was found to be 107 min.
`CCC(/C(C)=C/C(CNC(=O)c1cccnc1)=N/O)[N+](=O)[O-]` (stereo unspecified) displayed a Log k in series [1] of -2.699. In series [4], this compound returned a k of 0.002 min⁻¹. Also, in series [3], the half-life was 350 min.
On to `CC/C(=C\C(=N\O)C(N)=O)C(CC)[N+](=O)[O-]` (stereo unspecified), for which the Log k in series [1] is recorded as -2.347. This compound also gave a k in series [5] of 0.0045 min⁻¹. In [3], this compound displayed a half-life of 150 min.
In [6], `CC(=O)NCC(/C=C1\CCCCC1[N+](=O)[O-])=N\O` (stereo unspecified) came in with a k of 0.008 min⁻¹. In [3], the half-life stood at 87 min.
As for `O=C(NCC(/C=C1\CCCCC1[N+](=O)[O-])=N\O)c1cccnc1` (stereo unspecified), in series [7], the k stood at 0.0083 min⁻¹. In addition, the half-life in series [3] was 84 min.
In the case of `COCC(/C(C)=C/C(=N/O)C(N)=O)[N+](=O)[O-]` (stereo unspecified), the Log k in [1] was 0.569. Also, the k in series [8] amounted to 0.27 min⁻¹. Besides, the half-life in series [3] was 2.6 min.
`COCC(/C(C)=C/C(CNC(=O)c1cccnc1)=N/O)[N+](=O)[O-]` (stereo unspecified) gave a Log k in series [1] of -0.886. The compound also had a k in series [9] of 0.13 min⁻¹. For the same compound, the half-life in [3] is 5.3 min.
The compound `CC/C(=C\C(=N\O)C(N)=O)C(C)[N+](=O)[O-]` (stereo unspecified) registered a Log k in [1] of -1.824. Moreover, the k in series [10] stood at 0.00025 s⁻¹. For the same compound, in series [3], the half-life is 46 min.
Consider `NC(=O)C(/C=C1\CCCCC1[N+](=O)[O-])=N\O` (stereo unspecified), for which the k in series [11] worked out at 0.02 min⁻¹. The compound also showed a half-life in series [3] of 35 min.
In [1], `CC/C(=C\C(CNC(C)=O)=N\O)C(C(C)C)[N+](=O)[O-]` (stereo unspecified) yielded a Log k of -3.337. This compound also displayed a k in series [12] of 0.00046 min⁻¹. Further, the half-life in series [3] was 1500 min.
In turn, `CC/C(=C\C(=N\O)C(N)=O)C(C(C)C)[N+](=O)[O-]` (stereo unspecified) displayed a Log k in [1] of -3. Moreover, in series [13], the k was 0.001 min⁻¹. The half-life in series [3] came out at 690 min.
`CC/C(=C\C(CNC(=O)c1cccnc1)=N\O)C(CC)[N+](=O)[O-]` (stereo unspecified): the Log k in series [1] is -2.699. In series [14], the k was 0.002 min⁻¹. The compound also had a half-life in series [3] of 350 min.
`CC(C)/C(=C\C(=N\O)C(N)=O)C(C)[N+](=O)[O-]` (stereo unspecified): in series [15], the k turned out to be 0.0037 min⁻¹. This compound returned a Log k in [1] of -2.432. The half-life in series [3] was found to be 190 min.
As to `CC/C(=C\C(CNC(C)=O)=N\O)C(C)[N+](=O)[O-]` (stereo unspecified), the k in [16] amounted to 0.0081 min⁻¹. This compound showed a Log k in series [1] of -2.092. The same compound had a half-life in series [3] of 86 min.
For `CC(C)/C(=C\C(CNC(=O)c1cccnc1)=N\O)C(C)[N+](=O)[O-]` (stereo unspecified), the Log k in [1] is -2.921. This compound also registered a k in [17] of 0.0012 min⁻¹. The compound further came in with a half-life in series [3] of 580 min.
Compound `CC/C(=C\C(CNC(=O)c1cccnc1)=N\O)C(C(C)C)[N+](=O)[O-]` (stereo unspecified) yielded a Log k in [1] of -3.42. Also, in series [18], the k stood at 0.00038 min⁻¹. The compound also had a half-life in series [3] of 1800 min.
In turn, `CC/C(=C\C(=N\O)C(N)=O)C([N+](=O)[O-])C(C)(C)C` (stereo unspecified) showed a Log k in series [1] of -3.62. In series [19], this compound showed a k of 0.00024 min⁻¹. Moreover, in [3], the half-life turned out to be 2900 min.
`CC/C(=C\C(CNC(C)=O)=N\O)C(CC)[N+](=O)[O-]` (stereo unspecified) registered a Log k in [1] of -2.585. The compound also gave a k in series [20] of 0.0026 min⁻¹. The compound also yielded a half-life in [3] of 270 min.
